# Results from ChEMBL document CHEMBL4837239, “Identification of Thieno[3,2-d]pyrimidine Derivatives as Dual Inhibitors of Focal Adhesion Kinase and FMS-like Tyrosine Kinase 3” (J Med Chem, 2021).
# Columns and labels:
# [1] = molecular target: Proto-oncogene tyrosine-protein kinase ROS (Homo sapiens, UniProt P08922); assay: Inhibition of ROS (unknown origin)
# [2] = molecular target: Proto-oncogene tyrosine-protein kinase Src (Homo sapiens, UniProt P12931); assay: Inhibition of Src (unknown origin) at 0.1 uM
# Sequence of Proto-oncogene tyrosine-protein kinase Src (P12931 2-536 limits assumed): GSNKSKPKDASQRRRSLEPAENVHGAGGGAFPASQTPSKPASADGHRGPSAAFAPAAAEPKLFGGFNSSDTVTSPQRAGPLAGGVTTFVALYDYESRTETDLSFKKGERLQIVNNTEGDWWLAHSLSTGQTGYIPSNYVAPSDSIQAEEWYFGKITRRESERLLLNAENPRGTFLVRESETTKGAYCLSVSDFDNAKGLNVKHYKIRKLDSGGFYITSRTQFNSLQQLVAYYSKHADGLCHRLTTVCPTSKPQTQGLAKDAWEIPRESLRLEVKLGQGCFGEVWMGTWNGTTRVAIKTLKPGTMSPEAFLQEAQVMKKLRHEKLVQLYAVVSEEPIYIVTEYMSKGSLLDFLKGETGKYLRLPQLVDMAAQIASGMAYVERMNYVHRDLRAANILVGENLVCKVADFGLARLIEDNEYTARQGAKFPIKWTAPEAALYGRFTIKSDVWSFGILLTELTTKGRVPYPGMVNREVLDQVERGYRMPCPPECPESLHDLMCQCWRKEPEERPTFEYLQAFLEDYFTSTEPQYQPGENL
# Sequence of Proto-oncogene tyrosine-protein kinase ROS (P08922 whole entry): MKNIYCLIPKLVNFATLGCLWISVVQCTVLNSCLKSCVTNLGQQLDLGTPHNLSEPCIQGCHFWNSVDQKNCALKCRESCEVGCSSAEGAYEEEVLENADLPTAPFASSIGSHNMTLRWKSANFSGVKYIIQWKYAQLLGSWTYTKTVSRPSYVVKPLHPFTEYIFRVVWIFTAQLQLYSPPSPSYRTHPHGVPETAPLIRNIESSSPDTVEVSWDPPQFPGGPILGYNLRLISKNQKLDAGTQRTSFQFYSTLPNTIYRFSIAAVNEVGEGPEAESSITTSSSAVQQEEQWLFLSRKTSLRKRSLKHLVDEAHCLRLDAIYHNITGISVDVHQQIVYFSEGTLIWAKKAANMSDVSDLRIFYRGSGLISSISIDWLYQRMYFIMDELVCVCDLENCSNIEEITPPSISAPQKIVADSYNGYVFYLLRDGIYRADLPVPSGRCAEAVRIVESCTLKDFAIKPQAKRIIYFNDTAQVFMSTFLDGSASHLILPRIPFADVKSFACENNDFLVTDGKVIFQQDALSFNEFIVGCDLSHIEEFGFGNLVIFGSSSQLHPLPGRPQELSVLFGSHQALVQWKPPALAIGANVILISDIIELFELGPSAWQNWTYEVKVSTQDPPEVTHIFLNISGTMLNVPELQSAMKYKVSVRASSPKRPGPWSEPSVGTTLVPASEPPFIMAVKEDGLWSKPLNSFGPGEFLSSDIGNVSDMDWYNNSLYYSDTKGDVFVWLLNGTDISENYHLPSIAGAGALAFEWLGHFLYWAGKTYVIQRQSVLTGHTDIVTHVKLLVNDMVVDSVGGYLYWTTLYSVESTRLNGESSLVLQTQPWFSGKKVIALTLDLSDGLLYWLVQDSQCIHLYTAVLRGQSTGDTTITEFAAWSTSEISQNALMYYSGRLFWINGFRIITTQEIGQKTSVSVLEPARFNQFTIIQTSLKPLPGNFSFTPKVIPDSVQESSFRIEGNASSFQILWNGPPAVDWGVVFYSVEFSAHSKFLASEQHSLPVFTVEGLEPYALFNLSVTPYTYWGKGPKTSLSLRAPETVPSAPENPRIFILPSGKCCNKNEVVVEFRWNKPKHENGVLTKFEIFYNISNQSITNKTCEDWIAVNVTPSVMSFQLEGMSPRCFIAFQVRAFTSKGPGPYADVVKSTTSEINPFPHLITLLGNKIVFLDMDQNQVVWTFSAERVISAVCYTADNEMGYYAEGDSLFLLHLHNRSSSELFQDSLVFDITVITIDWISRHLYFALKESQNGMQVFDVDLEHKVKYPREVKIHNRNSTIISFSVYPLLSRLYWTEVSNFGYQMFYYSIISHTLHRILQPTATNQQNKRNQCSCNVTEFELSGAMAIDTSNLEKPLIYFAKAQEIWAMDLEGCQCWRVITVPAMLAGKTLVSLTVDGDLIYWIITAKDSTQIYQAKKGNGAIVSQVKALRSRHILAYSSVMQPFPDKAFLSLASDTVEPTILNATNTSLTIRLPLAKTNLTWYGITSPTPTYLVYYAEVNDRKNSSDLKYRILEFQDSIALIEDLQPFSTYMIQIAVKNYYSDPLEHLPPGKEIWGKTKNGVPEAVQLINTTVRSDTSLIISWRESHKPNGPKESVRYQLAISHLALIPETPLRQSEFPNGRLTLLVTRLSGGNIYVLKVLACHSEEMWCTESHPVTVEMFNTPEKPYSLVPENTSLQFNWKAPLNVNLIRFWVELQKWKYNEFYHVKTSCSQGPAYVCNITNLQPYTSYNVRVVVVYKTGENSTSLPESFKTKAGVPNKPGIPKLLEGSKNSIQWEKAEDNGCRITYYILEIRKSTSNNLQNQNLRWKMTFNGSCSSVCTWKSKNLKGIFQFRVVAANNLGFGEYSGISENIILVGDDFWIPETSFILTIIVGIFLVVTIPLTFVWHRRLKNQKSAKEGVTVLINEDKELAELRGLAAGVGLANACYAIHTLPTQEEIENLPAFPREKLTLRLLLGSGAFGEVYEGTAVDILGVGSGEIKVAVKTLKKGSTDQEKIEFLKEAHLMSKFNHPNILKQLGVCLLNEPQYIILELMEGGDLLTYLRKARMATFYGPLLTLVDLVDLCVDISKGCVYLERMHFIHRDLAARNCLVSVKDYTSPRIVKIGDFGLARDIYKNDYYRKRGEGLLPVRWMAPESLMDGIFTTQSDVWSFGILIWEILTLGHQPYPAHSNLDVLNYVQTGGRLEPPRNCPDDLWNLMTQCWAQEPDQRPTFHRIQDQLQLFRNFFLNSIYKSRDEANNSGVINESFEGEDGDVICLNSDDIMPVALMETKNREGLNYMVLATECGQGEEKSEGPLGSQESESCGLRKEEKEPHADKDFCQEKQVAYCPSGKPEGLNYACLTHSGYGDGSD
smiles,measurement,setting,value
CCN1CCN(c2ccc(Nc3ncc4scc(-c5cccc(NS(C)(=O)=O)c5)c4n3)cc2)CC1,IC50,[1],22 nM
same,inhibition,[2],93.1%
